Positions of bridges follow the written chain, without caps; N, C: chain ends. Residues, ends and D or L forms follow the SMILES beside them.
Columns and labels:
rKv4.2 D281N = biological target: T1, rKv4.2 D281N (Rattus norvegicus, UniProt Q63881, D281N); test: Patch clamp of rKv4.2 mutant D281N; type: cell-based; details: mean ± SEM
T1 construct: expressed in transfected cells; host or cells: HEK293T

rKv4.2 E283A = biological target: T2, rKv4.2 E283A (Rattus norvegicus, UniProt Q63881, E283A); test: Patch clamp of rKv4.2 mutant E283A; type: cell-based; details: mean ± SEM
T2 construct: expressed in transfected cells; host or cells: HEK293T

rKv4.2 D284A = biological target: T3, rKv4.2 D284A (Rattus norvegicus, UniProt Q63881, D284A); test: Patch clamp of rKv4.2 mutant D284A; type: cell-based; details: mean ± SEM
T3 construct: expressed in transfected cells; host or cells: HEK293T

rKv4.2 D281A = biological target: T4, rKv4.2 D281A (Rattus norvegicus, UniProt Q63881, D281A); test: Patch clamp of rKv4.2 mutant D281A; type: cell-based; details: mean ± SEM
T4 construct: expressed in transfected cells; host or cells: HEK293T

rKv4.2 D284K = biological target: T5, rKv4.2 D284K (Rattus norvegicus, UniProt Q63881, D284K); test: cell-based; details: mean ± SEM
T5 construct: expressed in transfected cells; host or cells: HEK293T
T5 sequence (Q63881 1-630 D284K): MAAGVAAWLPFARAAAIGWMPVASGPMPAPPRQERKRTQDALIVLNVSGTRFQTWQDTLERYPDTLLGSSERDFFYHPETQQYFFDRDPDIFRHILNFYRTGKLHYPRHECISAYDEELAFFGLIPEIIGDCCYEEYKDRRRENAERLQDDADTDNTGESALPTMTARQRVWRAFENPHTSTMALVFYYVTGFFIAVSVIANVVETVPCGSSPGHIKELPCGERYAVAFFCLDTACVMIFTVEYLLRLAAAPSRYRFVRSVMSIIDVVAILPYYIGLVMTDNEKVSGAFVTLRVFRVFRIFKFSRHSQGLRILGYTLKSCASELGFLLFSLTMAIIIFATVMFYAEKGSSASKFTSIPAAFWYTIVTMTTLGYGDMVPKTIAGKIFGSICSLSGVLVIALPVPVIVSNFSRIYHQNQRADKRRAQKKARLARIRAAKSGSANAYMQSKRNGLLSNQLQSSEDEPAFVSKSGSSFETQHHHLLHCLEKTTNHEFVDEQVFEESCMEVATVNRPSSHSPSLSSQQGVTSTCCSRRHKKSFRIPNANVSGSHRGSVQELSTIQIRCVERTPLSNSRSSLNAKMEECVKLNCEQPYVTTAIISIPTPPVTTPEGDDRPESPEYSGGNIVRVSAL

rKv2.1 = biological target: T6, rKv2.1 (Rattus norvegicus, UniProt P15387); test: Whole-cell patch clamp of rKv2.1 currents; type: cell-based; details: mean ± S.E.M., n = 6, SEM
T6 construct: expressed in transfected cells; host or cells: HEK293T

mKv4.1 = biological target: T7, mKv4.1 (Mus musculus, UniProt Q03719); test: Whole-cell patch clamp of mKv4.1 currents; type: cell-based; details: mean ± S.E.M., n = 5, SEM
T7 construct: expressed in transfected cells; host or cells: HEK293T

hERG = hERG (Homo sapiens, UniProt Q12809); test: in vitro; details: pH 7.4, SEM
Sequence of hERG (Q12809 whole entry): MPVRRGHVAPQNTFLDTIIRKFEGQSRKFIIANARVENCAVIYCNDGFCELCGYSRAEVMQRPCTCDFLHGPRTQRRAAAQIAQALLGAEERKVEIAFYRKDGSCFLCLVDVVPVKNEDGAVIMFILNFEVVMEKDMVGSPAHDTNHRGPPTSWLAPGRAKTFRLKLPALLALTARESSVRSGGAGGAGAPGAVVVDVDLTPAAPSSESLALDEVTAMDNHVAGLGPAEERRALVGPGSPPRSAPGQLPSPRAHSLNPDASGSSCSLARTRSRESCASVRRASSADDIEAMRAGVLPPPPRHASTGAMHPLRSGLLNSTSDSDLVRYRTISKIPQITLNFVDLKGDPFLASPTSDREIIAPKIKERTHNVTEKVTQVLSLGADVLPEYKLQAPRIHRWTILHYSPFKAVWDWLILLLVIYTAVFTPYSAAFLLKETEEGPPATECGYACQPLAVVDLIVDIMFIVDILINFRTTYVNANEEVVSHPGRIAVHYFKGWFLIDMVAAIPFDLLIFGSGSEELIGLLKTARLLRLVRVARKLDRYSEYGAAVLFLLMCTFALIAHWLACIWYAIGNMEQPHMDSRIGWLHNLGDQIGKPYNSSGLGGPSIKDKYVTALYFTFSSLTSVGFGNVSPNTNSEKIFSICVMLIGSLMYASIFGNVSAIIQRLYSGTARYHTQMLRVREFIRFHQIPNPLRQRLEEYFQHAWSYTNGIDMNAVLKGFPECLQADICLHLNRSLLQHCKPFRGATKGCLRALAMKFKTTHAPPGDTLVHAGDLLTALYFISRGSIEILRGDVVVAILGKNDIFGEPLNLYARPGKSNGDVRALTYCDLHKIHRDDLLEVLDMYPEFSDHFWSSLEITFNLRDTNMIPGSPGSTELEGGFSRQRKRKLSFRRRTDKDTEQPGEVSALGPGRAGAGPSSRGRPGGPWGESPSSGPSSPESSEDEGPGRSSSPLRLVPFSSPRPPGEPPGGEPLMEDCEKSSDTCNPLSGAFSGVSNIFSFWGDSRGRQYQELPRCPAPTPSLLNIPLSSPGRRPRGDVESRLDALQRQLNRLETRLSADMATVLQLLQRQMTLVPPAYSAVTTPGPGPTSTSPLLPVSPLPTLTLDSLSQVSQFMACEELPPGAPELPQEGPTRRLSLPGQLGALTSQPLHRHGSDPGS

T7 sequence (Q03719 whole entry): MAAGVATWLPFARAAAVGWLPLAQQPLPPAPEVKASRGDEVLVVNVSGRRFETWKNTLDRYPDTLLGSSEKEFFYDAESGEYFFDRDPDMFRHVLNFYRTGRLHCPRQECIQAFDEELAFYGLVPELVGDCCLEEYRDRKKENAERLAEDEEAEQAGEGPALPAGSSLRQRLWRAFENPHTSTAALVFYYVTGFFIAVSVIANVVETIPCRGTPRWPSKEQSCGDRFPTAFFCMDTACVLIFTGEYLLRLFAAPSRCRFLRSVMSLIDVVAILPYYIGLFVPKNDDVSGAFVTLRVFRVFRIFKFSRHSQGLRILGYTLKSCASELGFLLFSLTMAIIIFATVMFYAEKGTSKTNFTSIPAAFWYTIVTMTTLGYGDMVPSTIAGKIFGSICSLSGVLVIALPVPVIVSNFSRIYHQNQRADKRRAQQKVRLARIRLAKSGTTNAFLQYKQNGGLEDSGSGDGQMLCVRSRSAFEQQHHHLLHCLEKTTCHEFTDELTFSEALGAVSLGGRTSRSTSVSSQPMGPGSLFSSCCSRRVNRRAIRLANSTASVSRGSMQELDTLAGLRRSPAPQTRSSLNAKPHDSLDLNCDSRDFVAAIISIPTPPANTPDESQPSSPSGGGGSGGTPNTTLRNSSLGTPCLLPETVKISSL
T3 sequence (Q63881 whole entry D284A): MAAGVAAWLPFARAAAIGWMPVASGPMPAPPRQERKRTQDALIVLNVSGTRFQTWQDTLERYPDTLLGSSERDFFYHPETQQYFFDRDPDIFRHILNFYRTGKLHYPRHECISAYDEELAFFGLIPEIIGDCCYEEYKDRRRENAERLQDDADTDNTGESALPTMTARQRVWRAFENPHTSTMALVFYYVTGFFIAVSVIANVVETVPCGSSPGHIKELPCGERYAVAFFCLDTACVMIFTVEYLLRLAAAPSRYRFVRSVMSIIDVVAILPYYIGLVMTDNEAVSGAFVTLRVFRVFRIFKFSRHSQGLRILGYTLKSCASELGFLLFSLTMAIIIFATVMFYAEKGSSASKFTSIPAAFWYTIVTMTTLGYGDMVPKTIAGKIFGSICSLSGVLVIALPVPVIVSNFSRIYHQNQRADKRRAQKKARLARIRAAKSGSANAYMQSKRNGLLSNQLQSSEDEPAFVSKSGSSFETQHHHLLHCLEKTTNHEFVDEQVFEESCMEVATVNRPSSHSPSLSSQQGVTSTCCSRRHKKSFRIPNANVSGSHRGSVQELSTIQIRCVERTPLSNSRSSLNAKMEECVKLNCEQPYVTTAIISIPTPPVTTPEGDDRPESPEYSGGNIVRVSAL
T4 sequence (Q63881 whole entry D281A): as the sequence (Q63881 whole entry D284A) above, with D281A, A284D counted along it
T2 sequence (Q63881 whole entry E283A): as the sequence (Q63881 whole entry D284A) above, with E283A, A284D counted along it
T1 sequence (Q63881 whole entry D281N): as the sequence (Q63881 whole entry D284A) above, with D281N, A284D counted along it
T6 sequence (P15387 whole entry): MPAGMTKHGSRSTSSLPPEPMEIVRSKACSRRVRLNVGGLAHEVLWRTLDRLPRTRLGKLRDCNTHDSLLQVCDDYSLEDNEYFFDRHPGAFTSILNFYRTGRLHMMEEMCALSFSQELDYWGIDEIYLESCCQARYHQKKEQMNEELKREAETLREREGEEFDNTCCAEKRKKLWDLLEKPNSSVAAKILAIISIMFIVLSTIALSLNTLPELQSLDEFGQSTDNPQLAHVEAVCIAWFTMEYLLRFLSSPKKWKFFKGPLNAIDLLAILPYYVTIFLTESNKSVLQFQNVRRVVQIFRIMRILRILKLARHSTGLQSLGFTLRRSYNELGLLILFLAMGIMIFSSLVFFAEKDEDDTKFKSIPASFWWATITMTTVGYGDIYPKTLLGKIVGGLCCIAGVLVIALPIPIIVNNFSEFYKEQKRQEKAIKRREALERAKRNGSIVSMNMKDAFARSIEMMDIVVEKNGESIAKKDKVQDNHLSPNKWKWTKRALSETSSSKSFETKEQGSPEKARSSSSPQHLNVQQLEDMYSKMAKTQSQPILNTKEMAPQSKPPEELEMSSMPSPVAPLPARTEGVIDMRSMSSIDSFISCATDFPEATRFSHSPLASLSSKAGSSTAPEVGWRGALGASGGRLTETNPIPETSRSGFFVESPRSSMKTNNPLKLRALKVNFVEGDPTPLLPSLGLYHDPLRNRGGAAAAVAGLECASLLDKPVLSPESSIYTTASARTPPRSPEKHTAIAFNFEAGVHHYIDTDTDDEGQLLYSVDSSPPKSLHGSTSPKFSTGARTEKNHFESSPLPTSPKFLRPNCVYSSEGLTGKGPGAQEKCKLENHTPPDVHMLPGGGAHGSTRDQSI

SMILES | IC50 (rKv4.2 D281N) [µM] | IC50 (rKv4.2 E283A) [µM] | IC50 (rKv4.2 D284A) [µM] | IC50 (rKv4.2 D281A) [µM] | IC50 (rKv4.2 D284K) [µM] | IC50 (rKv2.1) [µM] | IC50 (mKv4.1) [µM] | IC50 (hERG) [µM] | IC50 (rKv4.2 D284K; SEM) [µM]
CC(C)C[C@H](NC(=O)[C@H](Cc1ccc(O)cc1)NC(=O)[C@@H](NC(=O)[C@H](CCCCN)NC(=O)[C@@H]1CSSC[C@@H]2NC(=O)[C@H](CCC(=O)O)NC(=O)[C@H](CC(N)=O)NC(=O)[C@H](CCCCN)NC(=O)CNC(=O)[C@@H]3CCCN3C(=O)[C@H]([C@@H](C)O)NC(=O)[C@@H]3CSSC[C@H](NC(=O)[C@H](C)NC(=O)[C@H](Cc4ccc(O)cc4)NC(=O)[C@H](CC(N)=O)NC(=O)[C@@H]4CCCN4C(=O)[C@H](CSSC[C@H](NC(=O)CN)C(=O)N[C@@H](CCCCN)C(=O)NCC(=O)N[C@@H](Cc4ccccc4)C(=O)NCC(=O)N[C@@H](CC(=O)O)C(=O)N[C@@H](CO)C(=O)N3)NC2=O)C(=O)N[C@@H](CO)C(=O)N[C@@H](CO)C(=O)N[C@@H](CCCCN)C(=O)N[C@@H](Cc2c[nH]cn2)C(=O)N[C@@H](CCCCN)C(=O)N[C@@H](Cc2c[nH]c3ccccc23)C(=O)N1)C(C)C)C(N)=O [HNTX-III] (H-GCKGFGDSCTPGKNECCPNYACSSKHKWCKVYL-NH2; disulfide 2-17, 9-22, 16-29) | 0.131 ± 0.032 | 0.987 ± 0.303 | 0.491 ± 0.072 | 0.214 ± 0.076 | > 20 | – | – | – | –
CSCC[C@@H]1NC(=O)CNC(=O)[C@H](CCC(=O)O)NC(=O)[C@@H]2CSSC[C@H](NC(=O)[C@@H](N)Cc3ccc(O)cc3)C(=O)N[C@@H](CCC(N)=O)C(=O)N[C@@H](CCCCN)C(=O)N[C@@H](Cc3c[nH]c4ccccc34)C(=O)N[C@@H](CCSC)C(=O)N[C@@H](Cc3c[nH]c4ccccc34)C(=O)N[C@@H]([C@@H](C)O)C(=O)N[C@H]3CSSC[C@H](NC(=O)[C@H](C(C)C)NC1=O)C(=O)N[C@@H](CCCNC(=N)N)C(=O)N[C@@H](CC(C)C)C(=O)N[C@@H](Cc1c[nH]c4ccccc14)C(=O)N[C@H](C(=O)N[C@@H](CCCCN)C(=O)N[C@@H](CCCCN)C(=O)N[C@@H](CCCCN)C(=O)N[C@@H](CC(C)C)C(=O)N[C@@H](Cc1c[nH]c4ccccc14)C(=O)O)CSSC[C@H](NC(=O)[C@H](CCCCN)NC(=O)[C@H](CCCNC(=N)N)NC(=O)[C@H](CCC(=O)O)NC(=O)[C@H](CO)NC(=O)[C@H](CC(=O)O)NC3=O)C(=O)N2 [ProTx-II] | – | – | – | – | – | 0.0787 ± 0.009 | 0.0381 ± 0.0053 | 0.0297 ± 0.0028 | 0.02 ± 0.002

Source: article PMC11558128 (Advanced Science, 2024)
